Source: PubChem BioAssay AID328 (DTP/NCI, 2004)
“And” between values parts separate entries of the source, which are not always exact repeats. Equal entries are not always repeated. Inconclusive results and toxic doses are left out.

System: BDF1 mice, P388 leukemia ip, median survival T/C
Assay: NCI In Vivo Anticancer Drug Screen. Data for tumor model P388 Leukemia (intraperitoneal) in B6D2F1 (BDF1) mice
Settings: endpoint: median survival time, higher = longer survival
Procedure, shortened: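 Compound-treated tumour-bearing mice were compared with vehicle-treated controls. Survival was recorded, and the value is the treated-group measurement divided by the control-group measurement (T/C).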

[1] = dose: 50.0 mg/kg/injection, schedule: Q04DX003 (ip), vehicle: saline with Tween-80
[2] = dose: 100.0 mg/kg/injection, schedule: Q04DX003 (ip), vehicle: saline with Tween-80
[3] = dose: 200.0 mg/kg/injection, schedule: Q04DX003 (ip), vehicle: saline with Tween-80
[4] = dose: 400.0 mg/kg/injection, schedule: Q04DX003 (ip), vehicle: saline with Tween-80
[5] = dose: 50.0 mg/kg/injection, schedule: Q01DX009 (ip), vehicle: saline with Tween-80
[6] = dose: 100.0 mg/kg/injection, schedule: Q01DX009 (ip), vehicle: saline with Tween-80
[7] = dose: 200.0 mg/kg/injection, schedule: Q01DX009 (ip), vehicle: saline with Tween-80
[8] = dose: 400.0 mg/kg/injection, schedule: Q01DX009 (ip), vehicle: saline with Tween-80

CN(C)[C@@H]1C(=O)C(C(N)=O)=C(O)[C@@]2(O)C(=O)C3=C(O)c4c(O)cccc4C[C@H]3C[C@@H]12
T/C (dose: 3.75 mg/kg/injection, schedule: Q01DX010 (ip), vehicle: water): 100 % of control
T/C (dose: 7.5 mg/kg/injection, schedule: Q01DX010 (ip), vehicle: saline): 120 % of control
T/C (dose: 7.5 mg/kg/injection, schedule: Q01DX010 (ip), vehicle: water): 118 % of control
T/C (dose: 15.0 mg/kg/injection, schedule: Q01DX010 (ip), vehicle: saline): 120 % of control
T/C (dose: 20.0 mg/kg/injection, schedule: Q01DX010 (oral), vehicle: water): 109 % of control
T/C (dose: 35.0 mg/kg/injection, schedule: Q01DX010 (oral), vehicle: water): 100 % of control
T/C (dose: 50.0 mg/kg/injection, schedule: Q01DX010 (oral), vehicle: water): 100 % of control
T/C (dose: 60.0 mg/kg/injection, schedule: Q01DX010 (ip), vehicle: saline): 100 % of control
T/C (dose: 65.0 mg/kg/injection, schedule: Q01DX010 (oral), vehicle: water): 109 % of control
T/C (dose: 80.0 mg/kg/injection, schedule: Q01DX010 (oral), vehicle: water): 90 % of control

CCC(/C=C\C(C)C1CCC2C3CC=C4CC(O)CCC4(C)C3CCC12C)C(C)C (stereo not given)
T/C (dose: 50.0 mg/kg/injection, schedule: Q01DX010 (ip), vehicle: saline): 104 % of control
T/C (dose: 100.0 mg/kg/injection, schedule: Q01DX010 (ip), vehicle: saline): 108 % of control
T/C (dose: 200.0 mg/kg/injection, schedule: Q01DX010 (ip), vehicle: saline): 100 % of control
T/C (dose: 400.0 mg/kg/injection, schedule: Q01DX010 (ip), vehicle: saline): 91 % of control

CCC(C)(O)C#CC(C)(O)CC (stereo not given)
T/C (dose: 100.0 mg/kg/injection, schedule: Q04DX003 (ip), vehicle: saline): 91 % of control
T/C (dose: 200.0 mg/kg/injection, schedule: Q04DX003 (ip), vehicle: saline): 91 % of control
T/C (dose: 400.0 mg/kg/injection, schedule: Q04DX003 (ip), vehicle: saline): 87 % of control

CC(=O)CC(=O)Nc1ccc([N+](=O)[O-])cc1
T/C [1]: 109 % of control
T/C [2]: 109 % of control
T/C [3]: 95 % of control
T/C [4]: 100 % of control

Cc1cc(C)c2nccc(/C=C/c3ccc(N(C)C)cc3)c2c1
T/C [5]: 93 % of control
T/C [6]: 103 % of control

OC1(CSc2ccccc2)CCCCC1
T/C [5]: 111 % of control
T/C [6]: 116 % of control and 119 % of control
T/C [7]: 116 % of control
T/C [8]: 122 % of control

CC(=O)N(O)CCCC1NC(=O)C(CCCN(O)C(C)=O)NC1=O (stereo not given)
T/C (dose: 100.0 mg/kg/injection, schedule: Q01DX001 (ip), vehicle: saline): 90 % of control
T/C (dose: 200.0 mg/kg/injection, schedule: Q01DX001 (ip), vehicle: saline): 90 % of control
T/C (dose: 400.0 mg/kg/injection, schedule: Q01DX001 (ip), vehicle: saline): 95 % of control

Nc1ncnc2[nH]ncc12
T/C (dose: 1.5 mg/kg/injection, schedule: Q01DX010 (ip), vehicle: saline): 90 % of control
T/C (dose: 3.0 mg/kg/injection, schedule: Q01DX010 (ip), vehicle: saline): 104 % of control and 115 % of control
T/C (dose: 6.0 mg/kg/injection, schedule: Q01DX010 (ip), vehicle: saline): 100 % of control
T/C (dose: 12.0 mg/kg/injection, schedule: Q01DX010 (ip), vehicle: saline): 109 % of control and 110 % of control

C[C@H]1[C@H](C)CC[C@]2(CO)CC[C@]3(C)C(=CC[C@@H]4[C@@]5(C)CC[C@@H](O)C(C)(C)[C@@H]5CC[C@]43C)[C@H]12
T/C (dose: 50.0 mg/kg/injection, schedule: Q01DX010 (ip), vehicle: acetone): 120 % of control
T/C (dose: 400.0 mg/kg/injection, schedule: Q01DX010 (ip), vehicle: acetone): 110 % of control

NC(=O)Oc1cccc(OC(N)=O)c1
T/C (dose: 12.5 mg/kg/injection, schedule: Q04DX003 (ip), vehicle: water): 106 % of control
T/C (dose: 25.0 mg/kg/injection, schedule: Q04DX003 (ip), vehicle: water): 106 % of control
T/C (dose: 50.0 mg/kg/injection, schedule: Q04DX003 (ip), vehicle: water): 111 % of control
T/C (dose: 100.0 mg/kg/injection, schedule: Q04DX003 (ip), vehicle: water): 106 % of control

CCOC(=O)C1(C(C)C)OC2CCCCCN2C1=O (stereo not given)
T/C [1]: 100 % of control
T/C [2]: 108 % of control
T/C [3]: 100 % of control
T/C [4]: 108 % of control

CCOC(=O)C(Br)(C(=O)OCC)C(c1ccccc1)c1ccccc1
T/C [6]: 95 % of control
T/C [8]: 109 % of control

CCOC(=O)COc1ccc(/C=C(\C)[N+](=O)[O-])c2ccccc12
T/C [5]: 112 % of control and 123 % of control
T/C [6]: 112 % of control
T/C [7]: 122 % of control
T/C [8]: 106 % of control

CC1COC(Nc2cccc3c2CCCC3)=N1 (stereo not given)
T/C (dose: 12.5 mg/kg/injection, schedule: Q04DX003 (ip), vehicle: saline with Tween-80): 100 % of control
T/C (dose: 25.0 mg/kg/injection, schedule: Q04DX003 (ip), vehicle: saline with Tween-80): 109 % of control
T/C [1]: 109 % of control

COc1ccc(/C=C/C(=O)c2ccc3c(c2)OCO3)cc1OC
T/C (dose: 44.0 mg/kg/injection, schedule: Q01DX009 (ip), vehicle: saline with Tween-80): 109 % of control
T/C (dose: 44.0 mg/kg/injection, schedule: Q04DX003 (ip), vehicle: saline with Tween-80): 109 % of control
T/C (dose: 66.0 mg/kg/injection, schedule: Q01DX009 (ip), vehicle: saline with Tween-80): 118 % of control
T/C (dose: 66.0 mg/kg/injection, schedule: Q04DX003 (ip), vehicle: saline with Tween-80): 109 % of control
T/C (dose: 88.0 mg/kg/injection, schedule: Q01DX009 (ip), vehicle: saline with Tween-80): 123 % of control
T/C [2]: 109 % of control
T/C (dose: 150.0 mg/kg/injection, schedule: Q04DX003 (ip), vehicle: saline with Tween-80): 109 % of control
T/C [7]: 157 % of control
T/C [8]: 194 % of control

COc1cccc(N2C(N)=NC(N)=NC2(C)C)c1
T/C (dose: 9.37 mg/kg/injection, schedule: Q01DX009 (ip), vehicle: Klucel (hydroxypropylcellulose) (HPC)): 108 % of control
T/C (dose: 18.75 mg/kg/injection, schedule: Q01DX009 (ip), vehicle: Klucel (hydroxypropylcellulose) (HPC)): 93 % of control

N#Cc1cnc(=S)n(-c2cc(C(F)(F)F)cc(C(F)(F)F)c2)c1N
T/C [5]: 101 % of control
T/C [6]: 115 % of control

Cn1c([N+](=O)[O-])cnc1/C=N/N1CCN(/N=C/c2ncc([N+](=O)[O-])n2C)CC1
T/C [5]: 101 % of control
T/C [6]: 113 % of control
T/C [7]: 94 % of control

c1ccc(-c2c[se]nn2)cc1
T/C (dose: 1.56 mg/kg/injection, schedule: Q01DX009 (ip), vehicle: saline + alcohol): 102 % of control
T/C (dose: 3.13 mg/kg/injection, schedule: Q01DX009 (ip), vehicle: saline + alcohol): 100 % of control
T/C (dose: 6.25 mg/kg/injection, schedule: Q01DX009 (ip), vehicle: saline + alcohol): 89 % of control
T/C (dose: 6.25 mg/kg/injection, schedule: Q01DX009 (ip), vehicle: saline with Tween-80): 86 % of control

Nc1nc(SCCc2ccccc2)c2[nH]cnc2n1
T/C [6]: 109 % of control
T/C [2]: 104 % of control
T/C [7]: 100 % of control
T/C [3]: 100 % of control
T/C [8]: 90 % of control
T/C [4]: 104 % of control

CCn1cnc2c(SC)ncnc21
T/C (dose: 18.75 mg/kg/injection, schedule: Q01DX009 (ip), vehicle: saline): 109 % of control
T/C (dose: 25.0 mg/kg/injection, schedule: Q04DX003 (ip), vehicle: saline): 86 % of control
T/C (dose: 37.5 mg/kg/injection, schedule: Q01DX009 (ip), vehicle: saline): 100 % of control
T/C (dose: 50.0 mg/kg/injection, schedule: Q04DX003 (ip), vehicle: saline): 104 % of control
T/C (dose: 75.0 mg/kg/injection, schedule: Q01DX009 (ip), vehicle: saline): 104 % of control
T/C (dose: 75.0 mg/kg/injection, schedule: Q04DX003 (ip), vehicle: Klucel (hydroxypropylcellulose) (HPC)): 95 % of control

O=C(COc1ccc(Cl)cc1)C1CSc2ccc3ccccc3c21 (stereo not given)
T/C (dose: 100.0 mg/kg/injection, schedule: Q04DX003 (ip), vehicle: saline sonified): 95 % of control
T/C (dose: 200.0 mg/kg/injection, schedule: Q04DX003 (ip), vehicle: saline sonified): 90 % of control
T/C (dose: 400.0 mg/kg/injection, schedule: Q04DX003 (ip), vehicle: saline sonified): 95 % of control

NC(=S)N/N=C\c1ncccc1OCc1cccc(N)c1
T/C (dose: 25.0 mg/kg/injection, schedule: Q01DX009 (ip), vehicle: other): 165 % of control
T/C (dose: 50.0 mg/kg/injection, schedule: Q01DX009 (ip), vehicle: other): 150 % of control
T/C (dose: 100.0 mg/kg/injection, schedule: Q01DX009 (ip), vehicle: other): 163 % of control
T/C (dose: 200.0 mg/kg/injection, schedule: Q01DX009 (ip), vehicle: other): 182 % of control

CC(C)=CCC/C(C)=C/CN1C(=O)CC(C)=C(C)C1=O
T/C [2]: 100 % of control
T/C [3]: 100 % of control
T/C [4]: 104 % of control
